Data on three molecules can be found in the NIST ThermoML archive (doi:10.1016/j.jct.2005.03.017).

By mass density is commonly meant the mass of a sample divided by its volume. The term refractive index denotes the speed of light in vacuum divided by its phase velocity in the sample.

For data set [1] the following is noted: Liquid; for mass density: 293.15 K, 101.33 kPa; for Normal boiling temperature: Ebulliometric method (Recirculating still).
The nature of data set [2]: refractive index (Na D-line) (dimensionless). To be noted: 293.15 K; 101.33 kPa; Liquid; Standard Abbe refractometry.

Each structure is given as a SMILES string. Numbers after ± are expanded uncertainties.

As for `O=C1CCCCC1` [cyclohexanone], in data set [1], the mass density is 947.3 ± 0.6 kg/m3 and the Normal boiling temperature was found to be 155.54 ± 0.1 °C. The refractive index in data set [2] turned out to be 1.451 ± 0.0008.

Consider `O` [water], for which the Normal boiling temperature in data set [1] worked out at 100.08 ± 0.1 °C. In data set [2], the refractive index amounted to 1.3326 ± 0.0008.

In the case of `CCC(=O)O` [propanoic acid], in data set [1], the mass density stood at 992.7 ± 0.5 kg/m3 and the Normal boiling temperature was 141.0 ± 0.1 °C. In addition, the refractive index in data set [2] came to 1.3811 ± 0.0008.
